Patent US6914151B1, “Crystallization processes for the formation of stable crystals of aspartame derivative” (Ajinomoto Co., Inc., priority 1998, dated 2005)

How the values were obtained:
[1] = Stability test at 70° C. of crystals (remaining ratio of N-(3,3-dimethylbutyl)-APM); format: physicochemical
Method: The resulting G-type crystals and A-type crystals of N-(3,3-dimethylbutyl)-APM were tested at 70° C., concerning their stability. […] The relationship between the storage time and the remaining ratio of N-(3,3-dimethylbutyl)-APM in this test will be shown below in Table 1.

[2] = on the weight basis, cited from earlier work

Row | Structure (SMILES) | Remaining ratio ([1]; time elapsed 0 hrs) [wt. %] | Remaining ratio ([1]; time elapsed 52 hrs) [wt. %] | Remaining ratio ([1]; time elapsed 160 hrs) [wt. %] | Remaining ratio ([1]; time elapsed 160 hrs, listed as A-type crystals) [wt. %] | Remaining ratio ([1]; time elapsed 160 hrs, listed as G-type crystals) [wt. %] | sweetening potency relative to aspartame ([2]; times that of aspartame) | sweetening potency relative to sucrose ([2]; times that of sucrose (table sugar))
1 | COC(=O)[C@H](Cc1ccccc1)NC(=O)[C@H](CC(=O)O)NCCC(C)(C)C [A, N-[N-(3,3-dimethylbutyl)-L-α-aspartyl]-L-phenylalanine methyl ester] | 95 | 95 | 94 | 94 |  |  | 
2 | COC(=O)[C@H](Cc1ccccc1)NC(=O)[C@H](CC(=O)O)NCCC(C)(C)C [G, N-[N-(3,3-dimethylbutyl)-L-α-aspartyl]-L-phenylalanine methyl ester, reference compound] | 96 | 87 | 34 |  | 34 |  | 
3 | COC(=O)[C@H](Cc1ccccc1)NC(=O)[C@H](CC(=O)O)NCCC(C)(C)C [N-(3,3-dimethylbutyl)-ATM, N-[N-(3,3-dimethylbutyl)-L-α-aspartyl]-L-phenylalanine methyl ester] |  |  |  |  |  | at least 50 times | about 10,000 times
